Measurements as given in ChEMBL document CHEMBL2177063, “Iridoid glucosides from Nyctanthes arbortristis result in increased reactive oxygen species and cellular redox homeostasis imbalance in Leishmania parasite” (Eur J Med Chem, 2012).
The source made the active and inactive calls. The calls are words filed in the database; no cut-off is given here.

Legend:
[1] = target: Trypanothione reductase (Leishmania donovani) (UniProt P39050); assay: Inhibition of Leishmania donovani DD8 axenic form trypanothione reductase assessed as decrease in reduced thiol level at 3.125 uM after 12 hrs by DTNB-based spectrophotometric analysis relative to control
Trypanothione reductase (Leishmania donovani), sequence (P39050 whole entry): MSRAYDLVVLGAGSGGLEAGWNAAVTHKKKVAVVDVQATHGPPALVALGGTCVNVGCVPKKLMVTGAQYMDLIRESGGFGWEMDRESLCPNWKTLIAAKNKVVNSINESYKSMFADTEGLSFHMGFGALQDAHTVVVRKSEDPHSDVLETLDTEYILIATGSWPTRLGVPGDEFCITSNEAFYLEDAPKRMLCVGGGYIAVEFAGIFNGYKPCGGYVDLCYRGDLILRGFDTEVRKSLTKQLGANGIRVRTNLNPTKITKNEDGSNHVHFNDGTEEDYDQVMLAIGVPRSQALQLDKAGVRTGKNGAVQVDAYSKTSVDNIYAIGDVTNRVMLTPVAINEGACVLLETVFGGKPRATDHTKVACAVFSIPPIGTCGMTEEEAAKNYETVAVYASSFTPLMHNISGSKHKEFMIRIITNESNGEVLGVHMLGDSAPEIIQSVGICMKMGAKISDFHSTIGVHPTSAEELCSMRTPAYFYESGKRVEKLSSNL

[2] = target: Trypanothione reductase (Leishmania donovani) (UniProt P39050); assay: Inhibition of Leishmania donovani DD8 axenic form trypanothione reductase assessed as decrease in reduced thiol level at 3.125 uM after 48 hrs by DTNB-based spectrophotometric analysis relative to control
[3] = system: Leishmania donovani; assay: Antileishmanial activity against amastigote form of Leishmania donovani DD8 infected in mouse J774A1 cells at 10 uM after 48 hrs by ethidium bromide/acridine orange staining-based fluorescence microscopic analysis; type: functional, organism-based; conditions: J774.A1
[4] = system: Leishmania donovani; assay: Antileishmanial activity against promastigote form of Leishmania donovani DD8 assessed as cell death at 200 uM from 12 to 48 hrs by ethidium bormide/acridine orange staining-based fluorescence microscopic analysis; type: functional, organism-based
[5] = system: Leishmania donovani; assay: Induction of oxidative stress in axenic form of Leishmania donovani DD8 assessed as change in cell surface topology at 20 uM by CM-H2DCFDA-based flow cytometric analysis; type: functional, organism-based
[6] = system: Leishmania donovani; assay: Induction of oxidative stress in axenic form of Leishmania donovani DD8 assessed as increase in ROS level at 20 uM by CM-H2DCFDA-based flow cytometric analysis; type: functional, organism-based
[7] = system: Leishmania donovani; assay: Induction of necrosis in promastigote form of Leishmania donovani DD8 assessed as necrotic cells at 20 uM after 24 hrs by FITC-annexinV/PI-based flow cytometric analysis (reference value: 1.31%); type: functional
[8] = system: Leishmania donovani; assay: Antileishmanial activity against promastigote form of Leishmania donovani DD8 after 48 hrs by MTT assay; type: functional, organism-based; conditions: DD8, 48 h
[9] = system: Leishmania donovani; assay: Antileishmanial activity against axenic form of Leishmania donovani DD8 after 48 hrs by MTT assay; type: functional, organism-based; conditions: DD8, 48 h
[10] = system: Leishmania donovani; assay: Induction of apoptosis in promastigote form of Leishmania donovani DD8 assessed as viable cells at 20 uM after 24 hrs by FITC-annexinV/PI-based flow cytometric analysis (reference value: 92.68%); type: functional
[11] = Cytotoxicity against human HEK293 cells assessed as cell viability at 4 uM after 48 hrs by MTT assay relative to control; type: cell-based; conditions: read-out: Activity
[12] = target: Trypanothione reductase (Leishmania donovani) (UniProt P39050); assay: Inhibition of Leishmania donovani DD8 promastigote form trypanothione reductase assessed as decrease in reduced thiol level at 3.125 uM after 48 hrs by DTNB-based spectrophotometric analysis relative to control
[13] = target: Trypanothione reductase (Leishmania donovani) (UniProt P39050); assay: Inhibition of Leishmania donovani DD8 promastigote form trypanothione reductase assessed as decrease in reduced thiol level at 3.125 uM after 12 hrs by DTNB-based spectrophotometric analysis relative to control
[14] = system: Leishmania donovani; assay: Induction of oxidative stress in promastigote form of Leishmania donovani DD8 assessed as increase in ROS level at 5 to 20 uM up to 48 hrs by CM-H2DCFDA-based fluorimetric analysis; type: functional, organism-based
[15] = target: Trypanothione reductase (Leishmania donovani) (UniProt P39050); assay: Inhibition of Leishmania donovani DD8 promastigote form trypanothione reductase assessed as decrease in reduced thiol level at 100 uM after 12 hrs by DTNB-based spectrophotometric analysis relative to control
[16] = Cytotoxicity against human HEK293 cells assessed as cell viability at 100 uM after 48 hrs by MTT assay relative to control; type: cell-based; conditions: read-out: Activity
[17] = system: Leishmania donovani; assay: Induction of oxidative stress in promastigote form of Leishmania donovani DD8 assessed as increase in ROS level at 20 uM by CM-H2DCFDA-based flow cytometric analysis; type: functional, organism-based
[18] = system: J774.A1; assay: Cytotoxicity against mouse J774A1 cells at 1 to 100 uM after 48 hrs by MTT assay; type: cell-based; conditions: j774.a1, 48 h
[19] = system: Leishmania donovani; assay: Induction of oxidative stress in promastigote form of Leishmania donovani DD8 assessed as change in cell surface topology at 20 uM by CM-H2DCFDA-based flow cytometric analysis; type: functional, organism-based
[20] = target: Trypanothione reductase (Leishmania donovani) (UniProt P39050); assay: Inhibition of Leishmania donovani DD8 promastigote form trypanothione reductase assessed as decrease in reduced thiol level at 100 uM after 48 hrs by DTNB-based spectrophotometric analysis relative to control
[21] = system: Leishmania donovani; assay: Induction of apoptosis in promastigote form of Leishmania donovani DD8 assessed as early apoptotic cells at 20 uM after 24 hrs by FITC-annexinV/PI-based flow cytometric analysis (reference value: 2.61%); type: functional
[22] = target: Trypanothione reductase (Leishmania donovani) (UniProt P39050); assay: Inhibition of Leishmania donovani DD8 axenic form trypanothione reductase assessed as decrease in reduced thiol level at 100 uM after 48 hrs by DTNB-based spectrophotometric analysis relative to control
[23] = target: Trypanothione reductase (Leishmania donovani) (UniProt P39050); assay: Inhibition of Leishmania donovani DD8 axenic form trypanothione reductase assessed as decrease in reduced thiol level at 100 uM after 12 hrs by DTNB-based spectrophotometric analysis relative to control
[24] = system: Leishmania donovani; assay: Antileishmanial activity against amastigote form of Leishmania donovani DD8 infected in mouse J774A1 cells at 100 uM after 48 hrs by ethidium bromide/acridine orange staining-based fluorescence microscopic analysis; type: functional, organism-based; conditions: J774.A1
[25] = system: Leishmania donovani; assay: Induction of oxidative stress in amastigote form of Leishmania donovani DD8 assessed as increase in ROS level at 5 to 20 uM up to 48 hrs by CM-H2DCFDA-based fluorimetric analysis; type: functional, organism-based
[26] = system: Leishmania donovani; assay: Induction of apoptosis in promastigote form of Leishmania donovani DD8 assessed as late apoptotic cells at 20 uM after 24 hrs by FITC-annexinV/PI-based flow cytometric analysis (reference value: 3.4%); type: functional

Compound	inhibition [1] [%]	inhibition [2] [%]	Activity [3]	Activity [4]	Activity [5]	Activity [6]	Activity [7] [%]	IC50 [8] [µM]	IC50 [9] [µM]	Activity [10] [%]	viability at 48 h, 4 µM [11] [%]	inhibition [12] [%]	inhibition [13] [%]	Activity [14]	inhibition [15] [%]	viability at 48 h, 100 µM [16] [%]	Activity [17]	Activity [18]	Activity [19]	inhibition [20] [%]	further results
COC(=O)C1=CO[C@@H](O[C@@H]2O[C@H](CO)[C@@H](O)[C@H](O)[C@H]2O)[C@@H]2[C@@H](C)[C@@H](OC(=O)/C=C/c3ccc(OC)cc3)[C@@H](O)[C@H]12 [ARBORTRISTOSIDE A]	97.9	73.4	Active	Active	Active	Active	10.33	3.26	7.26	61.24	95.5	63.7	92.5	Active	60.1	71.2	Active	Non-toxic	Active	33.8	Activity [21]: 26.3%; inhibition [22]: 41.9%; inhibition [23]: 65.8%; Activity [24]: Active; Activity [25]: Active; Activity [26]: 2.13%
COC(=O)C1=CO[C@@H](O[C@@H]2O[C@H](CO)[C@@H](O)[C@H](O)[C@H]2O)[C@@H]2[C@@H](CO)[C@@H](OC(=O)/C=C/c3ccc(O)c(O)c3)[C@@H](O)[C@H]12 [ARBORTRISTOSIDE B]	96.9	77.5	Active	Active	Active	Active	13.52	3.5	7.63	52.48	93.6	67.9	92.6	Active	63.6	54.8	Active	Non-toxic	Active	41.9	Activity [21]: 31.04%; inhibition [22]: 46.9%; inhibition [23]: 67.9%; Activity [24]: Active; Activity [25]: Active; Activity [26]: 2.96%
COC(=O)C1=CO[C@@H](O[C@@H]2O[C@H](CO)[C@@H](O)[C@H](O)[C@H]2O)[C@@H]2[C@@H](C)[C@@H](OC(=O)/C=C/c3ccc(O)cc3)[C@@H](O)[C@H]12 [ARBORTRISTOSIDE C]	97.7	82.8	Active	Active	Active	Active	10	5.02	9	50.9	89.6	78.9	95.3	Active	62.7	48.6	Active	Non-toxic	Active	46.9	Activity [21]: 36.59%; inhibition [22]: 51.7%; inhibition [23]: 67.8%; Activity [24]: Active; Activity [25]: Active; Activity [26]: 2.51%
